We go through 3 compounds from patent US6469052B2, “Compounds for the photodecontamination of pathogens in blood” (Cerus Corporation, priority 1993, dated 2002).

Like-named read-outs stand apart in the source and are kept apart here.

Data set [1] concerns Duck Hepatitis B Virus (DHBV). The data set can be described thus: Inactivation of DHBV in platelet concentrate, PCR amplification readout. To be noted: 5J/CM^2 UVA. Here is the method:
This example describes the protocol for inactivation of Duck Hepatitis B Virus (DHBV), a model for Hepatitis B Virus, using compounds of the present invention. DHBV in duck yolk was added to platelet concentrate (PC) to a final concentration of 2×10^7 particles per mL and mixed by gentle rocking for ≧15 min. […] Samples, including controls without added psoralen, were irradiated with 5J/CM^2 UVA, with mixing at 1 J/cm^2 increments. After irradiation, leukocytes and platelets were separated from virus by centrifugation. […] Samples were extracted with phenol-chloroform and chloroform, followed by ethanol precipitation. […] PCR amplicons were generated using primers pairs DCD03/DCD05 (127 bp), DCD03/DCD06 (327 bp) and DCD03/DCD07 (1072 bp). PCR was performed in a standard PCR buffer containing 0.2 mM each deoxyribonucleoside 5′-triphosphates (dATP, dGTP, dCTP, and dTTP), […], and 0.5 units Taq polymerase per […]. 30 cycles of amplification were performed with the following thermal profile: 95° C. 30 sec, 60° C. 30 sec, 72° C. 1 min. The amplification was followed by a 7 min incubation at 72° C. to yield full length products. […] was added at an amount of […] in order to detect and quantify the resulting products. Products were separated by electrophoresis on denaturing polyacrylamide slab gels and counted. The absence of signal in a given reaction was taken to indicate effective inactivation of DHBV.

In data set [2] the test system is Salmonella typhimurium TA97a. The source says: (§1) The second property that is important in testing a compound for use in methods of the present invention is mutagenicity. The most widely used mutagen/carcinogen screening assay is the Ames test. This assay is described by D. M. Maron and B. N. Ames in Mutation Research 113: 173 ( 1983) and a specific screen is described in detail in Example 17, below. The Ames test utilizes several unique strains of Salmonella typhimurium that are histidine- dependent for growth and that lack the usual DNA repair enzymes. The frequency of normal mutations that render the bacteria independent of histidine (i.e., the frequency of spontaneous revertants) is low. The test allows one to evaluate the impact of a compound on this revertant frequency.
(§2) In this example the compounds of the present invention are tested for their dark mutagenicity using an Ames assay. The procedures used for the Salmonella mutagenicity test as described in detail by Maron and Ames were followed exactly. Maron, D. M. and B. N. Ames, Mutation Research 113: 173 ( 1983). A brief description for each procedure is given here. The tester strains TA97a, TA98, TA100, TA102, TA1537 and TA1538 were obtained from Dr. Ames. TA97a, TA98, TA1537 and TA1538 are frameshift tester strains. TA100 and TA102 are base-substitution tester strains. Upon receipt each strain was cultured under a variety of conditions to confirm the genotypes specific to the strains.
(§3) The first tests done with the strains were to determine the range of spontaneous reversion for each of the strains. With each mutagenicity experiment the spontaneous reversion of the tester strains to histidine independence was measured and expressed as the number of spontaneous revertants per plate. This served as the background controls.
(§4) For all experiments, the pre-incubation procedure was used. In this procedure one vial of each tester strain was thawed and 20 μL of this culture was added to 6 mL of Oxoid Nutrient Broth #2. This solution was allowed to shake for 10 hours at 37° C. In the pre-incubation procedure, 0.1 mL of this overnight culture was added to each of the required number of sterile test tubes. To half of the tubes 0.5 mL of a 10% S-9 solution containing Aroclor 1254 induced rat liver extract (Molecular Toxicology Inc., Annapolis, Md.), and MgCl2, KCl, glucose-6-phosphate, NADP, and sodium phosphate buffer (Sigma, St. Louis, Mo.) were added. To the other half of the tubes 0.5 mL of 0.2M sodium phospate buffer, pH 7.4, was used in place of the S-9 mixture (the -S9 samples). Finally 0.1 mL of the test solution containing either 0, 0.1, 0.5, 1, 5, 10, 50, 100, 250, or 500 μg/mL of the test compound was added. The 0.7 mL mixture was vortexed and then pre-incubated while shaking for 20 minutes at 37° C. After shaking, 2 mL of molten top agar supplemented with histidine and biotin were added to the 0.7 mL mixture and immediately poured onto a minimal glucose agar plate (volume of base agar was 20 mL). The top agar was allowed 30 minutes to solidify and then the plates were inverted and incubated for 44 hours at 37° C. After incubation the number of revertant colonies on each plate were counted. […] (“n” represents the number of replicates performed for each data point.)
(§5) Maron and Ames (1983) describe the conflicting views with regard to the statisical treatment of data generated from the test.

Data set [3] deals with Salmonella typhimurium TA102. Kind of data set: Ames assay (dark mutagenicity), strain TA102.
Text: as §1, §2, §3, §4, §5
(In general: In the Ames test, an excess of revertant colonies over the control signals mutagenicity.)

In data set [4] the test system is Salmonella typhimurium TA1537. Kind of data set: Ames assay (dark mutagenicity), strain TA1537.
Text: as §1, §2, §3, §4, §5

Data set [5] relates to Salmonella typhimurium TA1538. The data set can be described thus: Ames assay (dark mutagenicity), strain TA1538.
Text: as §1, §2, §3, §4, §5

Data set [6] deals with Chinese hamster ovary (CHO) cells. Kind of data set: In vitro genotoxicity screen in CHO cells. It counts as cell-based. To be noted: approximately 3 hours exposure in the dark, dilutions 1-1000 μg/ml. The source says:
The positive control was methylmethane sulfonate.
Coverslips were mounted with Permount.

Data set [7] concerns GMP-140 (p-selectin) on platelets. The data set can be described thus: Platelet function: GMP-140 expression (flow cytometry, CD62). It counts as cell-based, human. The following applies: 100 μM compound, 5 Joules/cm^2, 5 days storage. How it is done:
(§6) To measure the effects of the present compounds and methods of decontamination on platelet function using these four indicators, four samples were prepared for each compound tested, two control samples and two containing compound. Three units of human platelets were obtained from the Sacramento Blood Center, Sacramento, Calif. These were each transferred under sterile conditions to 50 ml centrifuge tubes, then aliquots of each unit were transferred into a second set of 50 ml sterile centrifuge tubes. To each centrifuge tube containing platelet concentrate (PC), an aliquot of compound stock was added to reach a final concentration of 100 μM of compound. […] The samples were pipetted gently up and down to mix. Then aliquots (either 3 ml or 8 ml) of each sample was transferred to two sterile Teflon™ Medi-bags™ (American Fluoroseal Co., Silver Springs, Md.) (presently owned by The West Company, Lionville, Pa.). Samples were treated in one of two different sized bags, having either 3 ml or 8 ml capacity. […] For each compound tested, two control samples without compound were prepared by again removing aliquots of platelet concentrate (17 ml if using an 8 ml bag, […] if using a 3 ml bag) from the same one of the first set of 50 ml centrifuge tubes from which the compound sample was drawn, and dividing into Medibags, as before. One of each pair of Medibags containing a compound, and one of each pair of control Medibags, were illuminated for 5 Joules/cm^2 on the device described in Example 1, above. Then all experimental and control Medibags were placed on a platelet shaker for storage for 5 days. The same experiments were repeated several times to obtain more statistically meaningful data, as represented by “n”, the number of data points represented, in the graphs of FIGS. 21-24, discussed below.
A general note: Flow cytometry measures light scatter and fluorescence of single cells or particles in a stream.

The subject of data set [8] is human platelets. The following applies: 100 μM compound, 5 Joules/cm^2, 5 days storage. How it is done: as §6
A Sysmex cell counter was used to measure platelet count in the platelet samples. Samples were diluted 1:3 in blood bank saline.

For data set [9], the system named is mouse reticulocytes. To be noted: increased dose levels, male Balb/c mice, tail vein. How it is done:
Male Balb/c mice were then injected with 0.1 ml of a compound solution via the tail vein. At least 3 mice were injected per dose level. Saline only was used as a negative control. For a positive control, cyclophosphamide (cycloPP) was administered at a dose of 30 mg/kg. In the experimental group, the injections were repeated once per day for four days. In the positive control group, the sample was administered only once, on day three. On day 5, several microliters of blood were withdrawn from each subject and smeared on a glass slide. Cells were fixed in absolute methanol and stored in a slide rack.
For analysis, cells were stained with acridine orange and visualized under a fluorescence microscope by counting: (i) the number of reticulocytes per 5000 erythrocytes; and (ii) the number of micronucleated reticulocytes per 1000 reticulocytes. Reticulocytes were distinguished by their red fluorescence due to the presence of RNA. Micronuclei were distinguished by their green fluorescence due to the presence of DNA. The percentage of reticulocytes (%PCE) was then calculated. A decrease in the frequency of […] in the percentage of reticulocytes, is an indication of bone marrow toxicity. The percentage of reticulocytes with micronuclei (%PCE with MN) was also calculated. An increase in %PCE with MN is a measure of clastogenicity.
After initial results were determined, the experiment was repeated using increased dose levels, until: (i) Micronucleus formation was seen; or (ii) Bone marrow toxicity was observed; or (ii) The lethal dose was reached; or (iv) A dose of 5 g/kg was administered.

The subject of data set [10] is Salmonella typhimurium TA98. The data set can be described thus: Ames assay (dark mutagenicity), strain TA98.
Text: as §1, §2, §3, §4, §5

Data set [11] concerns Salmonella tester strains TA97a, TA98, TA100, TA102, TA1537 and TA1538. Kind of data set: Ames assay, overall assessment over the tester strains.
Text: as §1, §2, §3
For all experiments, the pre-incubation procedure was used. In this procedure one vial of each tester strain was thawed and 20 μL of this culture was added to 6 mL of Oxoid Nutrient Broth #2. This solution was allowed to shake for 10 hours at 37° C. In the pre-incubation procedure, 0.1 mL of this overnight culture was added to each of the required number of sterile test tubes. To half of the tubes 0.5 mL of a 10% S-9 solution containing Aroclor 1254 induced rat liver extract (Molecular Toxicology Inc., Annapolis, Md.), and MgCl2, KCl, glucose-6-phosphate, NADP, and sodium phosphate buffer (Sigma, St. Louis, Mo.) were added. To the other half of the tubes 0.5 mL of 0.2M sodium phospate buffer, pH 7.4, was used in place of the S-9 mixture (the -S9 samples). Finally 0.1 mL of the test solution containing either 0, 0.1, 0.5, 1, 5, 10, 50, 100, 250, or 500 μg/mL of the test compound was added. […] After incubation the number of revertant colonies on each plate were counted. […]

Turning to `Cc1oc2c(C)c3oc(=O)cc(C)c3cc2c1CN` [AMT, 4′-Aminomethyl-4,5′,8-trimethylpsoralen, reference compound], the “PCR amplification of the 1072 bp DHBV amplicon” value in data set [1] is “a signal could be detected”; in data set [1] (70 and 100 mM levels) it was “inhibited PCR amplification”. For the same compound, the revertants per plate is given as 14 in data set [2] (TA97a −S9, 0.1 μg/plate); 9 in data set [2] (TA97a −S9, 0.5 μg/plate); 54 in data set [2] (TA97a −S9, 1 μg/plate); 73 in data set [2] (TA97a −S9, 5 μg/plate); −20 in data set [3] (TA102 +S9, 0.1 μg/plate); 5 in [3] (TA102 +S9, 0.5 μg/plate). Also, the revertants per plate in [3] (TA102 +S9, 1 μg/plate) is −17; in data set [3] (TA102 +S9, 5 μg/plate), 51; in data set [4] (TA1537 +S9, 100 μg/plate) it was 500; in data set [5] (TA1538 −S9, 0.1 μg/plate), 3; in [5] (TA1538 −S9, 0.5 μg/plate), 4; in [5] (TA1538 −S9, 1 μg/plate), 4. The revertants per plate in data set [5] (TA1538 −S9, 5 μg/plate) came out at 13; in data set [5] (TA1538 −S9, 10 μg/plate), 14. The “dose at which frameshift mutagenicity was shown” value in data set [4] (TA1537) was found to be 5 μg/plate; in [5] (TA1538), 1 μg/plate. In addition, the “genotoxic (toxic) concentration” value in data set [6] is 30 µg/mL.

For `Cc1cc(=O)oc2c(C)c3oc(CNCCCCN)c(C)c3cc12` [Compound 17, 5′-(6-amino-2-aza)hexyl-4,4′,8-trimethylpsoralen], in data set [7], the “GMP-140 expression: sample treated with light and psoralen (PCD) versus day 5 untreated control (D5)” value was “little or no difference”. Besides, the “platelet count compared with samples treated with light alone” value in [8] is given as “higher platelet count than samples treated with light alone”. For the same compound, in data set [9], the “outcome of dose escalation in the micronucleus assay” value is reported as “the acutely lethal dose was reached before there were any signs of bone marrow toxicity or micronucleus formation”.

On to `Cc1cc(=O)oc2c(C)c3oc(COCCN)c(C)c3cc12` [Compound 18, 5′-(4-amino-2-oxa)butyl-4,4′,8-trimethylpsoralen], for which the revertants per plate is recorded as 8 in data set [10] (TA98 +S9, 10 μg/plate); 6 in [10] (TA98 +S9, 50 μg/plate); 26 in [10] (TA98 +S9, 100 μg/plate); 42 in data set [10] (TA98 +S9, 200 μg/plate); 21 in data set [10] (TA98 −S9, 10 μg/plate); 303 in data set [10] (TA98 −S9, 50 μg/plate). Also, the revertants per plate was 390 in data set [10] (TA98 −S9, 100 μg/plate); 225 in data set [10] (TA98 −S9, 200 μg/plate); 8 in data set [4] (TA1537 +S9, 10 μg/plate); 6 in data set [4] (TA1537 +S9, 50 μg/plate); 26 in data set [4] (TA1537 +S9, 100 μg/plate); 42 in data set [4] (TA1537 +S9, 200 μg/plate). Further, the revertants per plate in data set [4] (TA1537 −S9, 10 μg/plate) was 21; in data set [4] (TA1537 −S9, 50 μg/plate) it was 303; in data set [4] (TA1537 −S9, 100 μg/plate) it was 390; in data set [4] (TA1537 −S9, 200 μg/plate), 225. Also, in [11] (in the absence of S9), the “mutagenic response compared with AMT” value was “higher in the absence of S9, but still was significantly below that of AMT”. In addition, the mutagenic response result in data set [11] (in the presence of S9 in strains TA 9o and TA 1537) is “only a weak response at high concentrations”. Moreover, the “GMP-140 expression: sample treated with light and psoralen (PCD) versus day 5 untreated control (D5)” value in data set [7] is reported as “notable increase above the control”. In [8], the “platelet count compared with samples treated with light alone” value was “higher platelet count than samples treated with light alone”. The “outcome of dose escalation in the micronucleus assay” value in data set [9] was “the acutely lethal dose was reached before there were any signs of bone marrow toxicity or micronucleus formation”.
